Assay: in vitro
Conditions: human, hela cells, % viability

Compound	viability at 28.5 h, 10 µM [%]
Cc1cnn(CC2CCCCN2CC(=O)NCc2ccccn2)c1 (stereo not shown) [CBK304041]	110
COc1ccc(-c2cc(-c3ccccc3)nc(N/N=C/c3ccc(O)c(C)c3O)n2)cc1 [CBK261721]	101
CC(C)OC(=O)[C@@H]1CCN(C(=O)CCC2NC(=O)NC2=O)[C@@H]1c1ccc(F)cc1 (stereo partly shown) [CBK285520]	103
Cc1ccc(C(=O)Nc2cccc(-n3c(C)nc4ccccc4c3=O)c2)cc1 [CBK287725]	104
O=C(NCCn1nc(-c2cccs2)ccc1=O)c1ccccc1F [CBK283835]	86.1
COc1ccc(Cl)cc1CN(C)C(=O)c1cc(C(C)C)n2ncnc2n1 [CBK307331]	84.7
CC(=O)Nc1ccc(CN[C@@H]2CCC[C@H]2Cc2cc(C)no2)cc1 [CBK285459]	102
O=C(Nc1ccc2ncccc2c1)c1ccc(F)cc1Cl [CBK159796]	91.1
Cc1cc(C)n(-c2nc3cc(Cl)ccc3nc2NCc2ccc3c(c2)OCO3)n1 [CBK268482]	106
Cc1nc(C)c(CCC(=O)Nc2cccc(F)c2)c(=O)[nH]1 [CBK305026]	90.3
Cc1ccc(S(=O)(=O)Nc2ccc(N3C[C@@H](C)N[C@@H](C)C3)c3ccccc23)cc1 [CBK001486C]	87.8
NC(=O)CN1CCC(Oc2cncc(OCc3cccnc3)n2)C1 (stereo not shown) [CBK084459]	98
OC(CN(c1ccccc1)c1ccccc1)Cn1cnc2ccccc21 (stereo not shown) [CBK261417]	86.8
Cc1cc(NC(=O)CN2CCN(Cc3ccc4c(c3)CCO4)CC2)on1 [CBK305610]	92.5
COc1ccc(C2=C(CC(=O)O)C(=O)CC2)cc1 [CBK264812]	89.2
O=C(O)c1cc(C(=O)O)c2ccccc2n1 [CBK262304]	82.1
COCCN1CCn2c(nc3cc(NC(=O)c4cccc([N+](=O)[O-])c4)ccc32)C1 [CBK267965]	98.9

Compound	viability at 28.5 h, 10 µM [%]
O=C(Cc1c[nH]c2ccccc12)N1CCC2(CCN(C(=O)CC3CCCCC3)C2)C1 (stereo not shown) [CBK131422]	88.3
O=C(Nc1cccc(-c2nc3ncccc3o2)c1)c1cccnc1Cl [CBK058695]	92
Cc1ccc(C2=CCN(CC(=O)Nc3nc(C)c(C)s3)CC2)o1 [CBK283607]	99.1
CC(C)CSc1nsc(N)n1 [CBK019938]	97.1
COc1ccc(C(=O)CSc2nnc(-c3ccccc3)[nH]2)cc1[N+](=O)[O-] [CBK263299]	97.4
CCCCc1c(C)nc2ccc(OC)cc2c1SCCC(=O)O [CBK263888]	98.1
Cc1ccc(-n2nc(-c3ccc(NC(=O)c4ccccc4)cc3)cc2NC(=O)c2ccccc2)cc1 [CBK261265]	92.3
COc1ccc(C)cc1CN(C)C(=O)c1cccc(NC(=O)C2CC2)c1 [CBK305414]	98.5
CCOC(=O)c1c(NC(=O)CSc2n[nH]c(N)n2)sc2c1CCCCC2 [CBK266569]	101
COc1ccc(CN(C(=O)CCc2c(C)[nH]c(=O)c(C#N)c2C)C2CC2)cc1 [CBK295667]	97.6
COc1ccc(C(=O)N2CCc3ccccc32)c(OC)n1 [CBK200281]	106
O=C1C(=CNCCN2CCOCC2)C(=O)c2ccccc21 [CBK263008]	109
CC1=CC(C)C(C(=O)O)C(C(=O)NCc2cccnc2)C1 (stereo not shown) [CBK293964]	113
COC(=O)c1c(NC(=O)Cn2nc([N+](=O)[O-])c(Cl)c2C)sc2c1CCCC2 [CBK263047]	83.9
Cc1c(C(=O)O)sc(S(=O)(=O)N2CCN(C(=O)CC3CCCC3)CC2)c1C(=O)O [CBK297122]	101
O=C(Nc1ccc2nc(SCc3ccc([N+](=O)[O-])cc3)sc2c1)c1ccccc1 [CBK263427]	98.4

Same assay, conditions: human, hela cells, % viability, bulk resorufin, single well

Compound	viability at 28.5 h, 10 µM [%]
N#CC1(c2ccccc2)CCN(C(=O)COc2ccc(F)cc2)CC1 [CBK091387]	92.6

From publication PMC12040169 (PLOS Biology, 2025)
